Results as given in US11932636B2, “RAD51 inhibitors” (Cyteir Therapeutics, Inc., priority 2019, dated 2024).

tested on: Daudi cells (AID positive); experiment: Compound primary screening: cell death in AID positive Daudi cells (Cell-Titer Glo, Day 7); assay type: cell-based; details: Homo sapiens, 168 h; Daudi cells, AID positive; cell death on Day 7, Cell-Titer Glo; read-out: Cellular activity in AID + (Daudi)
How it was run: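 AID-positive Daudi cells were seeded at 1250 cells per well and treated with serially diluted compound delivered from a DMSO/media master plate. Cultures were incubated at 37 °C, and cell death was measured on Day 7 with Cell-Titer Glo luminescence.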

SMILES	EC50 [µM]
CCNS(=O)(=O)c1cc(C(N)=O)ccc1-c1cnc([C@H]2CC[C@H](NC(=O)OC3COC3)CC2)s1 [Compound 67, oxetan-3-yl trans-N-[4-[5-[4-carbamoyl-2-(ethylsulfamoyl)phenyl]thiazol-2-yl]cyclohexyl]carbamate]	1 to 10
CC(C)OC(=O)N[C@H]1CC[C@H](c2ncc(-c3ccc(-c4cc[nH]n4)cc3S(=O)(=O)NC(C)(C)C)s2)CC1 [Compound 6, isopropyl (trans-4-(5-(2-(N-(tert-butyl)sulfamoyl)-4-(1H-pyrazol-3-yl)phenyl)thiazol-2-yl)cyclohexyl)carbamate]	1 to 10
CCNS(=O)(=O)c1cc(N(C)c2ncc[nH]2)ccc1-c1cnc([C@H]2CC[C@H](NC(=O)OC(C)C)CC2)s1 [Compound 150, isopropyl trans-N-[4-[5-[2-(ethylsulfamoyl)-4-[1H-imidazol-2-yl(methyl)amino]phenyl]thiazol-2-yl]cyclohexyl]carbamate]	0.1 to 1
CCNS(=O)(=O)c1cc(C(=O)NC(C)C)ccc1-c1cnc([C@H]2CC[C@H](NC(=O)OC(C)C)CC2)s1 [Compound 50, isopropyl (trans-4-(5-(2-(N-ethylsulfamoyl)-4-(isopropylcarbamoyl)phenyl)thiazol-2-yl)cyclohexyl)carbamate]	0.1 to 1
CC(C)OC(=O)N[C@H]1CC[C@H](c2ncc(-c3ccc(OCCNC(=O)OC(C)(C)C)cc3S(=O)(=O)NC(C)(C)C)s2)CC1 [Compound 25, isopropyl N-[trans-4-[5-[4-[2-(tert-butoxycarbonylamino)ethoxy]-2-(tert-butylsulfamoyl)phenyl]thiazol-2-yl]cyclohexyl]carbamate]	1 to 10
CCNS(=O)(=O)c1cc(C#N)ccc1-c1cnc([C@H]2CC[C@H](NC(=O)OC(C)C)CC2)s1 [Compound 36, isopropyl trans-N-[4-[5-[4-cyano-2-(ethylsulfamoyl)phenyl]thiazol-2-yl]cyclohexyl]carbamate]	1 to 10
CC(C)OC(=O)N[C@H]1CC[C@H](c2ncc(-c3ccc(O)cc3S(=O)(=O)NC(C)(C)C)s2)CC1 [Compound 23, isopropyl (trans-4-(5-(2-(N-(tert-butyl)sulfamoyl)-4-hydroxyphenyl)thiazol-2-yl)cyclohexyl)carbamate]	0.1 to 1
CCNS(=O)(=O)c1cc(NC2(C)COC2)ccc1-c1cnc([C@H]2CC[C@H](NC(=O)OC)CC2)s1 [Compound 165, methyl trans-N-[4-[5-[2-(ethylsulfamoyl)-4-[(3-methyl-oxetan-3-yl)amino]phenyl]thiazol-2-yl]cyclohexyl]carbamate]	1 to 10
CCNS(=O)(=O)c1cc(Nc2ccc(CC)nn2)ccc1-c1cnc([C@H]2CC[C@H](NC(=O)OC(C)C)CC2)s1 [Compound 157, isopropyl trans-N-[4-[5-[4-[(6-ethylpyridazin-3-yl)amino]-2-(ethylsulfamoyl)phenyl]thiazol-2-yl]cyclohexyl]carbamate]	< 0.1
CCNS(=O)(=O)c1cc(Nc2cncn2C(C)C)ccc1-c1cnc([C@H]2CC[C@H](NC(=O)OC(C)C)CC2)s1 [Compound 138, isopropyl trans-N-[4-[5-[2-(ethylsulfamoyl)-4-[(3-isopropylimidazol-4-yl)amino]phenyl]thiazol-2-yl]cyclohexyl]carbamate]	0.1 to 1
Cc1ncc(-c2ccc(-c3cnc([C@H]4CC[C@H](NC(=O)OC(C)C)CC4)s3)c(S(=O)(=O)NC(C)(C)C)c2)s1 [Compound 14, isopropyl (trans-4-(5-(2-(N-(tert-butyl)sulfamoyl)-4-(2-methylthiazol-5-yl)phenyl)thiazol-2-yl)cyclohexyl)carbamate]	1 to 10
CC(C)CCOc1ccc(-c2cnc([C@H]3CC[C@H](NC(=O)OC4COC4)CC3)s2)c(S(=O)(=O)NC(C)(C)C)c1 [Compound 102, oxetan-3-yl trans-N-[4-[5-[2-(tert-butylsulfamoyl)-4-isopentyloxy-phenyl]thiazol-2-yl]cyclohexyl]carbamate]	1 to 10
CCNS(=O)(=O)c1cc(COCC(C)C)ccc1-c1cnc([C@H]2CC[C@H](NC(=O)OC(C)C)CC2)s1 [Compound 51, isopropyl (trans-4-(5-(2-(N-ethylsulfamoyl)-4-(isobutoxymethyl)phenyl)thiazol-2-yl)cyclohexyl)carbamate]	0.1 to 1
CCNS(=O)(=O)c1cc(CC(=O)N(C)C(C)C)ccc1-c1cnc([C@H]2CC[C@H](NC(=O)OC(C)C)CC2)s1 [Compound 80, isopropyl trans-N-[4-[5-[4-[2-(isopropyl(methyl)amino)-2-oxo-ethyl]-2-(ethyl-sulfamoyl)phenyl]thiazol-2-yl]cyclohexyl]carbamate]	0.1 to 1
CCNS(=O)(=O)c1cc(N2CCC(O)CC2)ccc1-c1cnc([C@H]2CC[C@H](NC(=O)OC(C)C)CC2)s1 [Compound 130, isopropyl trans-N-[4-[5-[2-(ethylsulfamoyl)-4-[4-hydroxypiperidin-1-yl]phenyl]thiazol-2-yl]cyclohexyl]carbamate]	0.1 to 1
CCNS(=O)(=O)c1cc(Nc2cncc(C(C)C)n2)ccc1-c1cnc([C@H]2CC[C@H](NC(=O)OC(C)C)CC2)s1 [Compound 140, isopropyl trans-N-[4-[5-[2-(ethylsulfamoyl)-4-[(6-isopropylpyrazin-2-yl)amino]phenyl]thiazol-2-yl]cyclohexyl]carbamate]	0.1 to 1
CCNS(=O)(=O)c1cc(NC2CNC2)ccc1-c1cnc([C@H]2CC[C@H](NC(=O)OC(C)C)CC2)s1 [Compound 144, isopropyl trans-N-[4-[5-[4-(azetidin-3-ylamino)-2-(ethyl-sulfamoyl)phenyl]thiazol-2-yl]cyclohexyl]carbamate]	0.1 to 1
CCNS(=O)(=O)c1cc(Nc2nccn2C)ccc1-c1cnc([C@H]2CC[C@H](NC(=O)OC(C)C)CC2)s1 [Compound 105, isopropyl trans-N-[4-[5-[2-(ethylsulfamoyl)-4-[(1-methylimidazol-2-yl)amino]phenyl]thiazol-2-yl]cyclohexyl]carbamate]	< 0.1
CCNS(=O)(=O)c1cc(CC(=O)NC(C)C)ccc1-c1cnc([C@H]2CC[C@H](NC(=O)OC3COC3)CC2)s1 [Compound 59, oxetan-3-yl (trans-4-(5-(2-(N-ethylsulfamoyl)-4-(2-(isopropylamino)-2-oxoethyl)phenyl)thiazol-2-yl)cyclohexyl)carbamate]	0.1 to 1
CCNS(=O)(=O)c1cc(CC(=O)N(C)Cc2ccccc2)ccc1-c1cnc([C@H]2CC[C@H](NC(=O)OC(C)C)CC2)s1 [Compound 81, isopropyl trans-N-[4-[5-[4-[2-(benzyl(methyl)amino)-2-oxo-ethyl]-2-(ethyl-sulfamoyl)phenyl]thiazol-2-yl]cyclohexyl]carbamate]	0.1 to 1
CCNS(=O)(=O)c1cc(Nc2cc(C(C)C)ccn2)ccc1-c1cnc([C@H]2CC[C@H](NC(=O)OC(C)C)CC2)s1 [Compound 111, isopropyl trans-N-[4-[5-[2-(ethylsulfamoyl)-4-[(4-isopropyl-2-pyridyl)amino]phenyl]thiazol-2-yl]cyclohexyl]carbamate]	0.1 to 1

same assay, conditions: Homo sapiens, Daudi, 168 h, read-out: Cellular activity in AID + (Daudi)

SMILES	EC50 [µM]
CCNS(=O)(=O)c1cc(-c2ncco2)ccc1-c1cnc([C@H]2CC[C@H](NC(=O)OC(C)C)CC2)s1 [Compound 104, isopropyl trans-N-[4-[5-[2-(ethylsulfamoyl)-4-oxazol-2-yl-phenyl]thiazol-2-yl]cyclohexyl]carbamate]	0.1 to 1
